Laboratory results: patent US20250205204A1, “Transcription Factor Brn2 Inhibitory Compounds for Use as Therapeutics” (The University of British Columbia, priority 2021, published 2025)

Legend:
[1] = Metabolic stability in liver microsomes (MLM); format: in vitro ADME, mice; details: 0.25 mg/mL protein
In short: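 Mouse liver microsomes (0.25 mg/mL protein) in 50 mM potassium phosphate pH 7.4 at 37 °C with 1 µM compound, 1 mM NADPH, 0.1% DMSO; sampled 0–60 min in duplicate. LC-MS/MS parent depletion gives half-life; CL'int in mL/min/kg scaled with 45 mg protein/g liver, 90 g liver.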

[2] = biological target: T1, BRN2 (Homo sapiens, UniProt P20265); assay: Drug Affinity Responsive Target Stability (DARTS) assay; details: printed in BLI binding column; 42D^ENZR lysate
T1 sequence (P20265 1-443): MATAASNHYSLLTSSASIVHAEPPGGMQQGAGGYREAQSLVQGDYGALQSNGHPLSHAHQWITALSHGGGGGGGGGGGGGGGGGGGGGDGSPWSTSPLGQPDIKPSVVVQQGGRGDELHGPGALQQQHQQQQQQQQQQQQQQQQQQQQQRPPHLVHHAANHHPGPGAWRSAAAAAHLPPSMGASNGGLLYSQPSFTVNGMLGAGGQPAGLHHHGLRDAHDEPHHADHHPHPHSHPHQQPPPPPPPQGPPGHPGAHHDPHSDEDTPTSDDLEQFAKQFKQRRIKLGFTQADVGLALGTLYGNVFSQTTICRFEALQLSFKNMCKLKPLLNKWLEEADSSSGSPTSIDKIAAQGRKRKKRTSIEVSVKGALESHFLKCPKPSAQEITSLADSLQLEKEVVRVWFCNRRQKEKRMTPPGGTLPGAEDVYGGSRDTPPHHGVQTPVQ
Protocol: Step 2: Drug Affinity Responsive Target Stability (DARTS) Assay
This in cell assay provides a yes/no answer to direct interaction between BRN2 inhibitor and protein.
1) Prepare and place the following on ice: • Pronase • TNC 10× • 500 mM Tris-HCl (pH 8.0) • 500 mM NaCl, 100 mM CaCl2 • DMSO • Drug • 10 mL NP40+Protease inhibitor+Phosphatase inhibitor solution (can store in 4° C. and use for up to 4 weeks): • 2 mL NP40 5× • 8 mL ddH2O • 1 PhosphoSTOP™ pill • 200 uL protease inhibitor 50×
2) Remove the growth medium from the cell plate (42D^ENZR) and add 10 mL of cold PBS/vanadate.
3) Scrape the cells. Remove the PBS-cell solution and add in a falcon tube.
4) Name a new 1.5 ml Eppendorf tube and put on ice to pre-chill.
5) Centrifuge the cells at 1500 for 5 minutes at 4° C. Remove supernatant and re-suspend the cells in 600 uL NP40 lysis buffer by pipetting up and down. If the cell pellet is small use less volume, for example 300 μl)
6) Transfer the lysing cells into the pre-chilled Eppendorf tube. Incubate on ice for 20 minutes. If not continuing the DARTS on the same day, you can put the lysate in −30 and work on it later.
Preparing Cell Lysates for DARTS:
7) Centrifuge the tube at maximum speed for 25-30 minutes at 4° C.
8) Discard the pellet (either transfer the supernatant in a new tube or just take out the pellet). […]
20) The samples are ready for Western blot gel running. […]

[3] = test system: 42D^ENZR cells; assay: Cell proliferation, BRN2 expressing 42D cells (crystal violet); format: cell-based; details: 42D (express BRN2) versus 16D (no BRN2) cells, about 72 hours; result in words
In short: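 42D^ENZR (~7000/well) and 16D^CRPC (~5000/well) cells plated, compound added next day from 3× media stocks. After ~72 hours, cells fixed with glutaraldehyde, stained with crystal violet, dye eluted in Sorensen solution; absorbance read at 590 nm.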

With FC(F)(F)c1ccc2c(c1)/C(=N\Nc1nc3ccccc3s1)CC2 [7-36] the half-life at 1 μM ([1]; mouse, liver microsomes, pH 7.4, 1 μM compound, read-out: T1/2 in mins (MLM)) was > 1 h, the “Met Stab % (60 mins) MLM” value ([1]; percent remaining at 60 min, 1 μM compound, 1 mM NADPH) was 78% and the “binding observed using DARTS assay” value [2] was “DARTS- good binding”. The “Growth Specificity” value [3] was “Specific to 42D, but weak activity”.
